From patent US20100190729A1 (CHUNG-ANG University Industry Academic Cooperation …, priority 2009, published 2010)

How the values were obtained:
IL-4 = IL-4 mRNA expression in anti-CD3 activated splenocytes, RT-PCR; type: cell-based, mouse
Experimental: (§1) FIG. 9 represents RT-PCR results showing an inhibitory effect of hirsutanonol on Th1 and Th2 cytokine expression. Murine splenocytes were cultured on 12 well plate (RT-PCR) at a concentration of 1.5×10^4 cells per well. For T cell activation, CsA (50 nM) and hirsutanonol were added into a well added with anti-CD3 mAb and all of other wells. Cells were incubated for 24 hrs and then […] was carried out. GAPDH was served as an internal control.
(§2) The mRNA expression levels of Th1 cytokines, IL-2 and Th2 cytokines, IL-4, IL-10 and IL-13 were examined. T cells activated by anti-CD3 mAb among spleen lymphocytes were used as a target. The primer sequences used to analyze IL-2, IL-4, IL-10 and IL-13 mRNA are as follows.

IL-2 [1] = test: IL-2 mRNA expression in anti-CD3 activated splenocytes, RT-PCR; type: cell-based, mouse
Experimental: as §1, §2

rat mast cell (RBL-2H3) = test: β-hexosaminidase assay (mast cell degranulation); type: cell-based
Experimental: FIG. 10 represents experimental results of β-hexosaminidase assay for hirsutanonol. The β-hexosaminidase (beta-hex) assay was performed according to the standard protocol of RBL-2H3 cell line. Suitable supernatant was collected and beta-hex activity was measured by incubating with a beta-hex substrate (p-nitrophenyl N-acetyl-beta-D-glucosaminide; Sigma) colored at 405 nm by cutting.
For testing the degranulation in rat mast cell (RBL-2H3) by hirsutanonol, β-hexosaminidase assay was carried out. β-hexosaminidase assay allows us to measure the activity and degranulation of mast cells.

Jurkat cells = test: Inhibition of cell proliferation, CCK assay (WST-8); type: cell-based, human
Experimental: FIG. 7 is a graph measuring the inhibitory effect of hirsutanonol on cell proliferation. Jurat cells were seeded into a 96 well plate at a concentration of 1×10^4 cells per well, and cultured in 2% FBS DMEM with or without hirsutanonol. Cell numbers were counted in triplicate wells by measuring the absorbance of reduced WST-8 (Dojindo, Japan) at 450 nm.
Hirsutanonol activity to inhibit cell proliferation of Jurkat cells was tested using CCK assay. […] Therefore, about 50 μg/ml of hirsutanonol was used in experiments to assess in vitro activity of hirsutanonol.

IL-13 = IL-13 mRNA expression in anti-CD3 activated splenocytes, RT-PCR; type: cell-based, mouse
Experimental: as §1, §2

IL-10 = IL-10 mRNA expression in anti-CD3 activated splenocytes, RT-PCR; type: cell-based, mouse
Experimental: as §1, §2

CD25/CD69 = test: T-cell early activation markers, flow cytometry; type: cell-based, mouse; conditions: 100 μg/ml, splenocytes stimulated by anti-CD3 mAb, 24 hrs
Experimental: FIG. 12 is a flow cytometry result analyzing the changes of CD25/CD69 expression induced by hirsutanonol. Splenocytes were stimulated by anti-CD3 mAb in the presence or absence of hirsutanonol. Each hirsutanonol and CsA was treated at concentrations of 50 and 100 μg/ml, and 50 nM. After incubation for 24 hrs, the percentage of cells expressing CD25 and CD69 were measured using flow cytometry.
CD25 and CD69 expression levels were comparatively measured in the group of basal, CsA and hirsutanonol (50, 100 μg/ml) respectively. CsA was used as a control group due to its strong inhibitory activity on CD25 and CD69 expression. The results were represented in FIG. 12.

[2] = system: BSA (bovine serum albumin); test: BSA degradation test (anti-oxidative activity, Cu2+/H2O2); type: biochemical
Experimental: The hydroxyl radical-mediated oxidation experiments were carried out by metal-catalyzed reactions. BSA (bovine serum albumin) was dissolved in 150 mM phosphate buffer (pH 7.3) to a final concentration of 0.5 mg/ml. […] 50 μg/ml of ascorbic acid was directly dissolved in 1×PBS and served as a control (an anti-oxidant). After incubation in an open tube, the reaction was kept to stand in a 37° C. shaking water bath. Each experimental group was loaded on 10% SDS-PAGE and stained with 0.01% Coomassie blue.
50 μg of BSA (Sigma) was added to 37.5 mM phosphate buffers (pH 7.3) containing 100 μM Cu^2+, 2.5 mM H2O2 and various amounts of hirsutanonol (1, 50, 100/200 μg/ml), and incubated at 37° C. for 2 hrs. Vitamin C (50 μg/ml) was served as a positive control. The reaction mixture was separated on 10% SDS gel and the protein bands were stained with 0.01% Coomassie blue.
Evaluation of anti-oxidative activity was preformed according to a BSA (bovine serum albumin) degradation test. BSA degradation test is a method to verify a capacity of an anti-oxidative compound which protects proteins or enzymes from damage by reactive oxygen species (ROS) using a metal ion-catalyzed reaction. […] The reaction mixture was electrophoresized on 10% SDS-PAGE (SDS-polyacrylamide gel).
To examine anti-oxidative activity of hirsutanonol, the removal of radical produced from H2O2/Cu^2+ was measured.

IL-2 [3] = test: IL-2 expression in anti-CD3 activated murine splenocytes, ELISA; type: cell-based, mouse
Experimental: FIG. 8 is the experimental results showing the inhibitory effect of hirsutanonol on IL-2 expression. Murine splenocytes were grown on 96 well plate at a concentration of 1.5×10^4 cells per well. For T cell activation, CsA (50 nM) and hirsutanonol were added into a well added with anti-CD3 mAb and into all of other wells. Cells were incubated for 72 hrs and then ELISA was carried out using the supernatants collected from each well.
IL-2 is a cytokine expressed in Th1 cells and plays a crucial role in the proliferation of T cells. Hirsutanonol was added to splenic T cells which have been primarily cultured from murine splenocytes and pre-activated by anti-CD3 mAb. Inhibitory activity of hirsutanonol on IL-2 expression was measured using ELISA. Cyclosporine A (CsA) with strong inhibitory activity against IL-2 secretion was served as a positive control.

[4] = Solubility in water on preparing the stock solution; conditions: stock solution preparation
Description: The final concentration of DMSO was adjusted to not more than 0.1% so as to maximally exclude the interference of the solvent. […] The prepared stock solutions were stored and then used after dilution to the suitable concentration.

SMILES | inhibitory activity on IL-4 mRNA expression (IL-4; 50 μg/ml or 100 μg/ml) | inhibitory effect on IL-4 mRNA expression compared to CsA (IL-4; 100 μg/ml, CsA 50 nM) | inhibitory activity on IL-2 mRNA expression (IL-2 [1]; 50 μg/ml or 100 μg/ml) | inhibitory effect on IL-2 mRNA expression compared to CsA (IL-2 [1]; 100 μg/ml, CsA 50 nM) | activity level of β-hexosaminidase (rat mast cell (RBL-2H3); 100 μg/ml) | inhibitory capability compared to CsA (rat mast cell (RBL-2H3); β-hexosaminidase) [fold] | concentration exhibiting inhibitory effects on cell proliferation (Jurkat cells) | inhibitory activity on IL-13 mRNA expression (IL-13; 50 μg/ml or 100 μg/ml) | inhibitory effect on IL-13 mRNA expression compared to CsA (IL-13; 100 μg/ml, CsA 50 nM) | inhibitory activity on IL-10 mRNA expression (IL-10; 50 μg/ml or 100 μg/ml) | inhibitory effect on IL-10 mRNA expression compared to CsA (IL-10; 100 μg/ml, CsA 50 nM) | inhibitory activity on CD25/CD69 expression compared to basal and CsA (CD25/CD69) | BSA protection effect ([2]; hirsutanonol 100 μg/ml) | activity to protect BSA ([2]; hirsutanonol 1, 50, 100/200 μg/ml, Cu2+ 100 μM, H2O2 2.5 mM) | BSA protection effect compared to Vitamin C ([2]; hirsutanonol, Vitamin C 50 μg/ml positive control) | inhibitory effect on IL-2 expression compared to CsA (IL-2 [3]; 50 μg/ml or 100 μg/ml, CsA 50 nM, 72 hrs) | inhibition effect on IL-2 secretion (IL-2 [3]; 50 μg/ml, without cytotoxicity) | solubility in water [4]
O=C(CCc1ccc(O)c(O)c1)CC(O)CCc1ccc(O)c(O)c1 (stereo not drawn) [hirsutanonol] | significant inhibitory activity | inhibitory effect equal to CsA | significant inhibitory activity | inhibitory effect equal to CsA | maximally inhibited | 20 | over 50 μg/ml | significant inhibitory activity | inhibitory effect equal to CsA | significant inhibitory activity | inhibitory effect equal to CsA | excellent inhibitory activity | significantly exhibited BSA protection effect | increased in a concentration-dependent manner | lower than that of Vitamin C | much higher than that of CsA | remarkably exhibited | 
O=C(CCc1ccc(O)c(O)c1)C[C@H](CCc1ccc(O)c(O)c1)O[C@@H]1OC[C@@H](O)[C@H](O)[C@H]1O [oregonin] |  |  |  |  |  |  |  |  |  |  |  |  |  |  |  |  |  | feasibly dissolved in water
